Structures can show the parent of a compound that is named as a salt.
Legend:
Format in all cases: cell-based
A. baumannii R674 [1] = assay: Chequerboard combination efficacy of adjuvant with antibiotics
Protocol: (§1) All the solvents were of reagent grade, which were distilled and dried before its use. All the reagents were purchased from Sigma-Aldrich, Alfa-Aesar, S.D. Fine, Avra and Spectrochem, and were used without further purification. Analytical thin layer chromatography (TLC) was performed on E. Merck TLC plates pre-coated with silica gel 60 F254 and visualization was carried out using UV light and Iodine. Column chromatography was performed on silica gel (60-120 mesh) using different ratio of chloroform and methanol solvent system. Nuclear magnetic resonance spectra were recorded on Bruker (AV-400) 400 MHz spectrometer in deuterated solvents. Mass spectra were obtained using 6538-UHD Accurate mass Q-TOF LC-MS instrument. For optical density measurement during bacteriology experiments, Tecan Infinite Pro series M200 Microplate Reader was used. Bacterial strains, A. baumannii (R674), P. aeruginosa (R590), E. coli (R3336) and K. pneumoniae (R3934) were used for the studies.
(§2) The combination efficacy with antibiotics from different classes and individual antibacterial activity of the synthesized adjuvants was evaluated against the above mentioned MDR and NDM-1 strains of Gram-negative bacteria. All the bacteria were grown in peptone. The bacterial samples were freeze dried and stored at −80° C. 3 μl of these stocks were added to 3 mL of peptone and the culture was grown for 6 h at 37° C. prior to the experiments.
(§3) All synthesized compounds were assayed for their antibacterial activity in combination with antibiotics in a modified chequerboard micro-dilution broth format. Stock solutions were made by serially diluting the compounds using autoclaved millipore water. The bacterial freeze dried stock samples were stored at −80° C. About 3 μL of these stocks were added to about 3 mL of the respective broth and the culture was grown for about 6 h at about 37° C. with prior to the experiments. This 6 h grown culture gives about 10^8 cfu/mL in case of A. baumannii R674, P. aeruginosa R590, E. coli R3336 and K. pneumoniae R3934 which were determined by spread plating method. This 6 h grown culture was diluted to give effective cell concentration of 10^5 cfu/mL, and then used for the chequerboard assay. Adjuvants and antibiotics were serially diluted in two-fold, in sterile millipore water. 25 μL of these serial dilutions of the antibiotics and 25 μL of compounds were added to the wells of 96 well plate followed by the addition of about 150 μL of bacterial solution (˜10^5 cfu/mL). The plates were then incubated at about 37° C., 150 rpm in the incubator and O.D at 600 nm was recorded at 24 h using TECAN (Infinite series, M200 pro) Plate Reader. The wells with similar OD as the media control contained the required concentration of the antibiotic and adjuvant for antibacterial efficacy. The potentiation ability of the adjuvants was determined by calculating the potentiation factor and the Fractional Inhibitory concentration (FIC) index. Fractional Inhibitory Concentration (FIC) is expressed as, FIC=[X]/MICX, where [X] is the lowest inhibitory concentration of antibiotic in the presence of the adjuvant. Whereas FIC index is expressed as, FICI=FICantibiotic+FICadjuvant. The values of FIC index give an insight about the nature of the combination. Potentiation factor which means fold-reduction in the MIC of the antibiotic, when used in combination with the adjuvant was also determined. Potentiation factor=[Minimum inhibitory concentration (MIC) of antibiotic in absence of adjuvant]/[MIC of antibiotic in presence of adjuvant]. […] The combination efficacies of adjuvants with various antibiotics are furnished in Table 1. It should be noted that various other resistant strains of bacteria (Gram-positive and Gram-negative) can be tested with a number of other antibiotics to check the potentiation capacity of the adjuvants.

K. pneumoniae R3934 [2] = assay: as above
Protocol: as §1, §2, §3

A. baumannii R674 [3] = assay: Individual antibacterial activity (MIC) of adjuvants; conditions: Acinetobacter baumannii, R674, read-out: MIC against clinical isolates of bacteria
Protocol: as §2, §3

E. coli R3336 = assay: as above; conditions: Escherichia coli, R3336, read-out: MIC against clinical isolates of bacteria
Protocol: as §2, §3

K. pneumoniae R3934 [4] = assay: as above; conditions: Klebsiella pneumoniae, R3934, read-out: MIC against clinical isolates of bacteria
Protocol: as §2, §3

P. aeruginosa R590 = assay: as above; conditions: Pseudomonas aeruginosa, R590, read-out: MIC against clinical isolates of bacteria
Protocol: as §2, §3

human RBCs = assay: Haemolytic activity; conditions: concentration at which 50% of human blood cells are lysed; 1 h at 37° C.
Protocol: Erythrocytes were isolated from freshly drawn, heparanized human blood and re-suspended to 5 vol % in PBS (pH 7.4). In a 96-well microtiter plate, 150 μl of erythrocyte suspension was added to 50 μl of serially diluted compound. Two controls were made, one without compound and other with 50 μl of 1 vol % solution of Triton X-100. The plate was incubated for 1 h at 37° C. The plate was then centrifuged at 3,500 rpm for 5 min, 100 μl of the supernatant from each well was transferred to a fresh 96-well microtiter plate, and A540 was measured. Percentage of hemolysis was determined as (A−A0)/(Atotal−A0)×100, where A is the absorbance of the test well, A0 the absorbance of the negative controls (without compound), and Atotal the absorbance of 100% hemolysis wells (with Triton X-100), all at 540 nm.
Toxicity studies of the compounds were done on freshly drawn human RBCs. Toxicity of the compounds were defined by their HC50 values (Table 2), i.e. the concentration of compound at which 50% of the blood cells are lysed.

NCCCC[C@H](N)C(=O)NCCCCCCN(CCCCCCNC(=O)[C@@H](N)CCCCN)C(=O)Cc1cccc2ccccc12 [Compound 13, N,N-bis-[(6-(^LLys)amido)hexyl] naphthyl ethanamide tetrakistrifluoroacetate]
MIC of antibiotic in presence of adjuvant (A. baumannii R674 [1]; antibiotic Ampicillin): No potentiation
FICI (A. baumannii R674 [1]; antibiotic Ciprofloxacin): 0.3125
MIC of antibiotic in presence of adjuvant (A. baumannii R674 [1]; antibiotic Ciprofloxacin): 64 µg/mL
Potentiation factor (A. baumannii R674 [1]; antibiotic Ciprofloxacin): 4
FICI (A. baumannii R674 [1]; antibiotic Erythromycin): 0.156
MIC of antibiotic in presence of adjuvant (A. baumannii R674 [1]; antibiotic Erythromycin): 16 µg/mL
Potentiation factor (A. baumannii R674 [1]; antibiotic Erythromycin): 32
FICI (A. baumannii R674 [1]; antibiotic Fusidic acid): <0.023
MIC of antibiotic in presence of adjuvant (A. baumannii R674 [1]; antibiotic Fusidic acid): <0.5 µg/mL
Potentiation factor (A. baumannii R674 [1]; antibiotic Fusidic acid): >128
FICI (A. baumannii R674 [1]; antibiotic Linezolid): 0.1875
MIC of antibiotic in presence of adjuvant (A. baumannii R674 [1]; antibiotic Linezolid): 32 µg/mL
Potentiation factor (A. baumannii R674 [1]; antibiotic Linezolid): 8
FICI (A. baumannii R674 [1]; antibiotic Minocycline): 0.1875
MIC of antibiotic in presence of adjuvant (A. baumannii R674 [1]; antibiotic Minocycline): 0.5 µg/mL
Potentiation factor (A. baumannii R674 [1]; antibiotic Minocycline): 16
FICI (A. baumannii R674 [1]; antibiotic Rifampicin): 0.023
MIC of antibiotic in presence of adjuvant (A. baumannii R674 [1]; antibiotic Rifampicin): 1 µg/mL
Potentiation factor (A. baumannii R674 [1]; antibiotic Rifampicin): 64
MIC of antibiotic in presence of adjuvant (A. baumannii R674 [1]; antibiotic Streptomycin): No potentiation
FICI (A. baumannii R674 [1]; antibiotic Tetracycline): 0.375
MIC of antibiotic in presence of adjuvant (A. baumannii R674 [1]; antibiotic Tetracycline): 16 µg/mL
Potentiation factor (A. baumannii R674 [1]; antibiotic Tetracycline): 8
FICI (A. baumannii R674 [1]; antibiotic Vancomycin): 0.5625
MIC of antibiotic in presence of adjuvant (A. baumannii R674 [1]; antibiotic Vancomycin): 32 µg/mL
Potentiation factor (A. baumannii R674 [1]; antibiotic Vancomycin): 2
FICI (K. pneumoniae R3934 [2]; antibiotic Fusidic acid): <0.133
MIC of antibiotic in presence of adjuvant (K. pneumoniae R3934 [2]; antibiotic Fusidic acid): 4 µg/mL
Potentiation factor (K. pneumoniae R3934 [2]; antibiotic Fusidic acid): 128
FICI (K. pneumoniae R3934 [2]; antibiotic Linezolid): <0.25
MIC of antibiotic in presence of adjuvant (K. pneumoniae R3934 [2]; antibiotic Linezolid): 64 µg/mL
Potentiation factor (K. pneumoniae R3934 [2]; antibiotic Linezolid): >8
FICI (K. pneumoniae R3934 [2]; antibiotic Minocycline): <0.07
MIC of antibiotic in presence of adjuvant (K. pneumoniae R3934 [2]; antibiotic Minocycline): 0.5 µg/mL
Potentiation factor (K. pneumoniae R3934 [2]; antibiotic Minocycline): 128
FICI (K. pneumoniae R3934 [2]; antibiotic Rifampicin): <0.064
MIC of antibiotic in presence of adjuvant (K. pneumoniae R3934 [2]; antibiotic Rifampicin): 1 µg/mL
Potentiation factor (K. pneumoniae R3934 [2]; antibiotic Rifampicin): 512
MIC (A. baumannii R674 [3]): 512 µg/mL
MIC (E. coli R3336): > 512 µg/mL
MIC (K. pneumoniae R3934 [4]): > 512 µg/mL
MIC (P. aeruginosa R590): 512 µg/mL
HC50 (human RBCs): >1024 µg/mL

NCCCC[C@H](N)C(=O)NCCCCCCN(CCCCCCNC(=O)[C@@H](N)CCCCN)C(=O)CC(c1ccccc1)c1ccccc1 [Compound 14, N,N-bis-[(6-(^LLys)amido)hexyl] 3,3-diphenyl propanamide tetrakis trifluoroacetate]
MIC of antibiotic in presence of adjuvant (A. baumannii R674 [1]; antibiotic Ampicillin): No potentiation
FICI (A. baumannii R674 [1]; antibiotic Ciprofloxacin): <0.281
MIC of antibiotic in presence of adjuvant (A. baumannii R674 [1]; antibiotic Ciprofloxacin): 64 µg/mL
Potentiation factor (A. baumannii R674 [1]; antibiotic Ciprofloxacin): 4
FICI (A. baumannii R674 [1]; antibiotic Erythromycin): <0.0625
MIC of antibiotic in presence of adjuvant (A. baumannii R674 [1]; antibiotic Erythromycin): 16 µg/mL
Potentiation factor (A. baumannii R674 [1]; antibiotic Erythromycin): 32
FICI (A. baumannii R674 [1]; antibiotic Fusidic acid): <0.012
MIC of antibiotic in presence of adjuvant (A. baumannii R674 [1]; antibiotic Fusidic acid): <0.5 µg/mL
Potentiation factor (A. baumannii R674 [1]; antibiotic Fusidic acid): >128
FICI (A. baumannii R674 [1]; antibiotic Linezolid): <0.156
MIC of antibiotic in presence of adjuvant (A. baumannii R674 [1]; antibiotic Linezolid): 32 µg/mL
Potentiation factor (A. baumannii R674 [1]; antibiotic Linezolid): 8
FICI (A. baumannii R674 [1]; antibiotic Minocycline): <0.129
MIC of antibiotic in presence of adjuvant (A. baumannii R674 [1]; antibiotic Minocycline): 1 µg/mL
Potentiation factor (A. baumannii R674 [1]; antibiotic Minocycline): 8
FICI (A. baumannii R674 [1]; antibiotic Rifampicin): <0.017
MIC of antibiotic in presence of adjuvant (A. baumannii R674 [1]; antibiotic Rifampicin): <0.125 µg/mL
Potentiation factor (A. baumannii R674 [1]; antibiotic Rifampicin): >512
MIC of antibiotic in presence of adjuvant (A. baumannii R674 [1]; antibiotic Streptomycin): No potentiation
FICI (A. baumannii R674 [1]; antibiotic Tetracycline): <0.25
MIC of antibiotic in presence of adjuvant (A. baumannii R674 [1]; antibiotic Tetracycline): 16 µg/mL
Potentiation factor (A. baumannii R674 [1]; antibiotic Tetracycline): 8
FICI (A. baumannii R674 [1]; antibiotic Vancomycin): <0.3125
MIC of antibiotic in presence of adjuvant (A. baumannii R674 [1]; antibiotic Vancomycin): 16 µg/mL
Potentiation factor (A. baumannii R674 [1]; antibiotic Vancomycin): 4
FICI (K. pneumoniae R3934 [2]; antibiotic Fusidic acid): <0.1289
MIC of antibiotic in presence of adjuvant (K. pneumoniae R3934 [2]; antibiotic Fusidic acid): 2 µg/mL
Potentiation factor (K. pneumoniae R3934 [2]; antibiotic Fusidic acid): 256
FICI (K. pneumoniae R3934 [2]; antibiotic Linezolid): <0.1328
MIC of antibiotic in presence of adjuvant (K. pneumoniae R3934 [2]; antibiotic Linezolid): 64 µg/mL
Potentiation factor (K. pneumoniae R3934 [2]; antibiotic Linezolid): >8
FICI (K. pneumoniae R3934 [2]; antibiotic Minocycline): <0.1328
MIC of antibiotic in presence of adjuvant (K. pneumoniae R3934 [2]; antibiotic Minocycline): 0.5 µg/mL
Potentiation factor (K. pneumoniae R3934 [2]; antibiotic Minocycline): 128
FICI (K. pneumoniae R3934 [2]; antibiotic Rifampicin): <0.126
MIC of antibiotic in presence of adjuvant (K. pneumoniae R3934 [2]; antibiotic Rifampicin): 0.5 µg/mL
Potentiation factor (K. pneumoniae R3934 [2]; antibiotic Rifampicin): 1024
MIC (A. baumannii R674 [3]): > 512 µg/mL
MIC (E. coli R3336): > 512 µg/mL
MIC (K. pneumoniae R3934 [4]): > 512 µg/mL
MIC (P. aeruginosa R590): > 512 µg/mL
HC50 (human RBCs): >1024 µg/mL
